{"source": "patent US20140051665A1", "about": "“PROSTATE CANCER THERAPY WITH HSP90 INHIBITORY COMPOUNDS” (SYNTA PHARMACEUTICALS CORP., priority 2011, published 2014)", "key": {"PC3 cells [1]": {"test_system": "PC3 cells", "assay": "Combination of AZD-7762 with ganetespib, killing of PC3 cells", "format": "cell-based, human"}, "DU145 cells [2]": {"test_system": "DU145 cells", "assay": "Annexin V apoptosis assay by flow cytometry", "format": "cell-based, human", "details": "DU145, 24 h, escalating doses", "procedure": "(§1) For cell cycle analysis, PC3 and DU145 cells were seeded overnight at 0.3×10^6 cells/5 mL in a 6-well plate and then exposed to increasing concentrations of ganetespib (0-500 nM) for 24 h. Cells were harvested and stained with propidium iodide using the BD Cycle TEST PLUS Reagent Kit (BD Biosciences, San Jose, Calif., USA) according to the manufacturer's instructions. Twenty thousand cells were analyzed for their DNA content using a FACS Caliber cytometer (BD Biosciences, Billerica, Mass., USA). For the apoptosis assay in the DU145 cell line, cells were treated with ganetespib (10, 100 or 500 nM), 17-AAG (500 or 1000 nM) or control (DMSO) for 24 h. Following treatment cells were harvested and stained using a fluorescein-conjugated anti-Annexin V antibody (BD Biosciences) and apoptosis assessed by flow cytometry."}, "PC3 cells [3]": {"test_system": "PC3 cells", "assay": "CellTiter-Glo cell viability assay, PC3", "details": "read-out: cytotoxicity IC50", "experimental": "(§3) The LNCaP, VCaP, 22Rv1, DU145 and PC3 human prostate cancer cell lines and HeLa cells were all purchased from the American Type Culture Collection (Manassas, Va., USA). Cells were maintained and cultured according to standard techniques at 37° C. in 5% (v/v) CO2 using culture medium recommended by the supplier. […] The Hsp90 inhibitors ganetespib and 17-AAG were synthesized at Synta Pharmaceuticals Corp. methyltrienolone (R1881) was purchased from Perkin-Elmer (Boston, Mass., USA).\n(§4) Cellular viability was assessed using the CellTiter-Glo Luminescent Cell Viability Assay (Promega, Madison, Wis., USA) according to the manufacturer's protocol. Twenty-four hours after plating at 5×10^3 cells/well in triplicate in 96-well plates, cells were dosed with graded concentrations of ganetespib or 17-AAG for 72 h. CellTiter-Glo was added (50% v/v) to the cells, and the plates incubated for 10 min prior to luminescent detection in a SpectraMax Plus 384 microplate reader (Molecular Devices, Sunnyvale, Calif., USA). Data were normalized to percent of control and IC50 values used to determine the sensitivity of each line."}, "22Rv1 cells": {"test_system": "22Rv1 cells", "assay": "CellTiter-Glo cell viability assay, 22Rv1", "details": "read-out: cytotoxicity IC50, 22Rv1, 72 h", "experimental": "as §3, §4"}, "[4]": {"test_system": "DU145 cells (EGFR, STAT3, IGF-IR)", "assay": "Western blot of Hsp90 client proteins, DU145", "format": "cell-based, human", "details": "for exposure required for significant reductions in p-EGFR expression: DU145", "text": "(§2) Prostate cancer cell lines were lysed in RIPA buffer (Cell Signaling Technology, Beverly, Mass. USA) and HeLa lysed by four rounds of freeze/thawing using 1× Reporter Lysis Buffer (Promega, Madison, Wis., USA) containing 0.4 M NaCl. Lysates were clarified by centrifugation and equal amounts of protein resolved by SDSPAGE before transfer to nitrocellulose membranes. Membranes were blocked with 5% skim milk in TBS with 0.5% Tween and immunoblotted with indicated antibodies. Antigen-antibody complexes were visualized using an Odyssey system (LI-COR, Lincoln, Nebr., USA)."}, "VCaP cells": {"test_system": "VCaP cells", "assay": "CellTiter-Glo cell viability assay, VCaP", "experimental": "as §3, §4"}, "DU145 cells [5]": {"test_system": "DU145 cells", "assay": "CellTiter-Glo cell viability assay, DU145", "details": "read-out: cytotoxicity IC50", "experimental": "as §3, §4"}, "LNCaP cells": {"test_system": "LNCaP cells", "assay": "CellTiter-Glo cell viability assay, LNCaP"}, "constitutive V7 activity": {"test_system": "constitutive V7 activity", "assay": "GRE-luciferase reporter assay in HeLa, V7 variant", "format": "cell-based", "text": "HeLa cells were transiently transfected using a poly-L-lysine coupled adenoviral-mediated DNA transfer technique as previously described. See, e.g., Nazareth et al (1996), Activation of the human androgen receptor through a protein kinase A signaling pathway. J Biol Chem 271 19900-19907. The plasmid constructs used were pCR3.1-AR (encoding for full length AR) and pCR3.1-V7 (encoding for the V7 truncated AR isoform and which was a gift from Manjula Nakka and William Krause, Baylor College of Medicine). For the expression study, HeLa cells were transfected with 3 ng of pCR3.1-AR or 0.5 ng of pCR3.1-V7 for 24 h. Cells were treated with R1881 (10 nM), GA (1 μM), and/or STA9090 (250 nM) or vehicle (ethanol and DMSO) for 24 hours prior to lysis and immunoblotting. To determine the effect of Hsp90 inhibitors on AR and variant activity, HeLa cells were transiently transfected with 250 ng of GRE-luciferase reporter, 30 ng of pCR3.1 β-galactosidase, 3 ng of pCR3.1-AR, or 0.03 ng of pCR3.1-V7 and treated as above. Luciferase and β-galactosidase activities were measured and luciferase levels normalized to β-galactosidase levels as described previously. See, e.g., Agoulnik et al (2003), Repressors of androgen and progesterone receptor action. J Biol Chem 278 31136-31148."}, "full length AR": {"test_system": "full length AR", "assay": "Expression of transfected full length AR in HeLa, immunoblot", "format": "cell-based", "details": "24 h, GA or 250 nM ganetespib, 10 nM R1881", "quoted_text": "(§5) HeLa cells were transiently transfected using a poly-L-lysine coupled adenoviral-mediated DNA transfer technique as previously described. […] The plasmid constructs used were pCR3.1-AR (encoding for full length AR) and pCR3.1-V7 (encoding for the V7 truncated AR isoform and which was a gift from Manjula Nakka and William Krause, Baylor College of Medicine)."}, "full-length AR activity": {"test_system": "full-length AR activity", "assay": "GRE-luciferase reporter assay in HeLa, full-length AR", "format": "cell-based", "experimental": "HeLa cells were transiently transfected using a poly-L-lysine coupled adenoviral-mediated DNA transfer technique as previously described. […] The plasmid constructs used were pCR3.1-AR (encoding for full length AR) and pCR3.1-V7 (encoding for the V7 truncated AR isoform and which was a gift from Manjula Nakka and William Krause, Baylor College of Medicine). […] To determine the effect of Hsp90 inhibitors on AR and variant activity, HeLa cells were transiently transfected with 250 ng of GRE-luciferase reporter, 30 ng of pCR3.1 β-galactosidase, 3 ng of pCR3.1-AR, or 0.03 ng of pCR3.1-V7 and treated as above. Luciferase and β-galactosidase activities were measured and luciferase levels normalized to β-galactosidase levels as described previously."}, "[6]": {"details": "weekly dosing regimen; cited from earlier work"}, "[7]": {"test_system": "22Rv1 cells (full-length AR, p-AKT/AKT, PARP)", "assay": "Western blot, 22Rv1", "format": "cell-based, human", "details": "22Rv1, 24 h", "text": "as §2"}, "PC3 cells [8]": {"test_system": "PC3 cells", "assay": "Cell cycle analysis by flow cytometry, PC3", "format": "cell-based, human", "details": "PC3, 0-500 nM, 24 h", "procedure": "as §1"}, "V7 truncated AR isoform": {"test_system": "V7 truncated AR isoform", "assay": "Expression of transfected V7 truncated AR in HeLa, immunoblot", "format": "cell-based", "details": "24 h, 1 mM GA or 250 nM ganetespib", "quoted_text": "as §5"}, "[9]": {"test_system": "PCa cell lines (LNCaP, 22Rv1, PC-3, DU-145)", "assay": "Summary of potency in PCa cell line panel versus 17-AAG", "format": "cell-based, human", "experimental": "as §4"}, "PC3 cells (IGF-1R)": {"test_system": "PC3 cells (IGF-1R)", "assay": "Western blot of Hsp90 client proteins, PC3", "format": "cell-based, human", "text": "as §2"}, "[10]": {"test_system": "LNCaP cells (AR, p-AKT/AKT, CDK1)", "assay": "Western blot of Hsp90 client proteins, LNCaP", "format": "cell-based, human", "text": "as §2"}, "DU145 cells [11]": {"test_system": "DU145 cells", "assay": "Cell cycle analysis by flow cytometry, DU145", "format": "cell-based, human", "details": "DU145, 0-500 nM, 24 h", "procedure": "as §1"}, "PC3 tumor xenografts": {"test_system": "PC3 tumor xenografts", "assay": "In vivo prostate xenograft model", "details": "for % T/C: PC3 xenografts in nude mice, i.v.", "experimental": "Eight-week-old female immunodeficient nude mice (Charles River Laboratories, Wilmington, Mass.) were maintained in a pathogen-free environment, and all in vivo procedures were approved by the Synta Pharmaceuticals Corp. Institutional Animal Care and Use Committee. PC3 tumor cells were subcutaneously implanted into nude mice. […] Tumor volumes (V) were calculated by caliper measurements of the width (W), length (L), and thickness (T) of each tumor using the formula: V=0.5236(LWT). Tumor growth inhibition was determined as described previously."}, "[12]": {"test_system": "DU-145 prostate carcinoma cells", "assay": "alamarBlue cell viability assay, single agents and docetaxel combination", "details": "DU-145 cells, 72 hr"}, "[13]": {"test_system": "AR-specific transcriptional activity in LNCaP cells", "assay": "Quantitative RT-PCR of AR-directed genes PSA and TMPRSS2", "format": "cell-based, human", "details": "250 nM ganetespib or 1 μM geldanamycin, 24 h, 10 nM R1881", "procedure": "LNCaP cells were cultured in charcoal-stripped medium for 24 h and then treated with 250 nM ganetespib, 1 μM geldanamycin, or vehicle for 24 h in the absence or presence of 10 nM methyltrienolone (R1881). RNA was prepared from the LNCaP cells post-treatment using TRIzol reagent (Invitrogen, Grand Island, N.Y., USA). Previously reported prostate specific antigen (PSA), transmembrane protease, serine 2 (TMPRSS2), and 18S primer sets were used for target gene expression and were analyzed using SYBR green PCR Master mix in an ABI 7500 Fast sequence detection system. See, e.g., Agoulnik et al (2006), Androgens modulate expression of transcription intermediary factor 2, an androgen receptor coactivator whose expression level correlates with early biochemical recurrence in prostate cancer. Cancer Res 66 10594-10602. PSA and TMPRSS2 mRNA levels were normalized to 18S mRNA values."}, "[14]": {"details": "read-out: cytotoxicity IC50, 72 h"}, "[15]": {"details": "Homo sapiens, 72 h, read-out: cytotoxicity IC50"}}, "note": "Like-named read-outs stand apart in the source and are kept apart here."}
{"smiles": "NC(=O)Nc1cc(-c2cccc(F)c2)sc1C(=O)N[C@H]1CCCNC1", "note": "[AZD-7762]", "values": [{"measurement": "combination effect with ganetespib in killing cells", "setting": "PC3 cells [1]", "value": "in synergy with ganetespib"}]}
{"smiles": "C=CCNC1=C2C[C@@H](C)C[C@H](OC)[C@H](O)[C@@H](C)/C=C(\\C)[C@H](OC(N)=O)[C@@H](OC)/C=C\\C=C(/C)C(=O)NC(=CC1=O)C2=O", "note": "[Compound 17-AAG, 17-AAG, reference compound]", "values": [{"measurement": "apoptotic cells, Annexin V staining", "setting": "DU145 cells [2]", "value": "comparable proportion of apoptotic cells"}, {"measurement": "IC50", "setting": "PC3 cells [3]; PC3, 72 h", "value": 246, "unit": "nM"}, {"measurement": "IC50", "setting": "22Rv1 cells", "value": 1270, "unit": "nM"}, {"measurement": "exposure required for significant reductions in p-EGFR expression", "setting": "[4]", "value": 18, "unit": "h"}, {"measurement": "IC50", "setting": "VCaP cells; [14]", "value": 2640, "unit": "nM"}, {"measurement": "IC50", "setting": "DU145 cells [5]; DU145, 72 h", "value": 36, "unit": "nM"}, {"measurement": "IC50", "setting": "LNCaP cells; [14]", "value": 265, "unit": "nM"}]}
{"smiles": "CC(C)c1cc(-c2nnc(O)n2-c2ccc3c(ccn3C)c2)c(O)cc1O", "note": "[Ganetespib, 3-(2,4-dihydroxy-5-isopropyl-phenyl)-4-(1-methyl-indol-5-yl)-5-hydroxy-[1,2,4] triazole]", "values": [{"measurement": "apoptotic cells, Annexin V staining", "setting": "DU145 cells [2]", "value": "dose-dependent increase in apoptotic cells"}, {"measurement": "constitutive V7 activity, luciferase assay", "setting": "constitutive V7 activity", "value": "less effective"}, {"measurement": "androgen-increased full-length AR expression", "setting": "full length AR", "value": "completely abrogated"}, {"measurement": "IC50", "setting": "PC3 cells [3]; Homo sapiens, PC-3, 72 h", "value": 77, "unit": "nM"}, {"measurement": "IC50", "setting": "22Rv1 cells; Homo sapiens", "value": 2, "unit": "nM"}, {"measurement": "full-length AR activity, luciferase assay", "setting": "full-length AR activity", "value": "strongly inhibited"}, {"measurement": "highest non-severely toxic dose (HNSTD)", "setting": "[6]", "value": 150, "unit": "mg/kg"}, {"measurement": "dose sufficient to induce degradation of full-length AR, destabilization of p-AKT/AKT and apoptosis (cleaved PARP)", "setting": "[7]", "value": "≤ 25", "unit": "nM"}, {"measurement": "cell cycle distribution", "setting": "PC3 cells [8]", "value": "dose-dependent accumulation of cells in the G2/M phase"}, {"measurement": "expression of the variant (V7) receptor", "setting": "V7 truncated AR isoform", "value": "neither inhibitor significantly altered expression"}, {"measurement": "IC50 fold less than 17-AAG", "setting": "[9]", "value": "3-7 fold"}, {"measurement": "time by which IGF-1R levels were reduced", "setting": "PC3 cells (IGF-1R)", "value": "≤ 6", "unit": "h"}, {"measurement": "time of destabilization of p-AKT/AKT", "setting": "[10]; 100 nM", "value": 18, "unit": "h"}, {"measurement": "time of loss of total and phosphorylated CDK1", "setting": "[10]; 100 nM", "value": "≤ 24", "unit": "h"}, {"measurement": "time to measurable reduction in AR expression", "setting": "[10]; 100 nM", "value": "≤ 3", "unit": "h"}, {"measurement": "AR levels", "setting": "[10]; 24 h, Western blot", "value": "potent and dose-dependent decrease"}, {"measurement": "exposure required for significant reductions in p-EGFR expression", "setting": "[4]", "value": 18, "unit": "h"}, {"measurement": "STAT3 signaling", "setting": "[4]; DU145, 24 h, Western blot", "value": "completely abrogated"}, {"measurement": "cell cycle distribution", "setting": "DU145 cells [11]", "value": "dose-dependent accumulation of cells in the G2/M phase"}, {"measurement": "tolerability of the regimen", "setting": "PC3 tumor xenografts; 150 mg/kg weekly, nude mice", "value": "well tolerated"}, {"measurement": "% T/C", "setting": "PC3 tumor xenografts; once a week at 150 mg/kg for 4 weeks", "value": 17, "unit": "%"}, {"measurement": "% T/C", "setting": "PC3 tumor xenografts; twice a week at 50 mg/kg for 4 weeks", "value": 3, "unit": "%"}, {"measurement": "IC50", "setting": "[12]", "value": 14, "unit": "nM"}, {"measurement": "IC50", "setting": "VCaP cells; [15]", "value": 7, "unit": "nM"}, {"measurement": "R1881 induction of PSA and TMPRSS2 mRNA", "setting": "[13]", "value": "significantly inhibited"}, {"measurement": "IC50", "setting": "DU145 cells [5]; Homo sapiens, DU-145, 72 h", "value": 12, "unit": "nM"}, {"measurement": "IC50", "setting": "LNCaP cells; [15]", "value": 8, "unit": "nM"}]}
{"smiles": "CC(=O)O[C@@]12CO[C@@H]1C[C@H](O)[C@@]1(C)C(=O)[C@H](O)C3=C(C)[C@@H](OC(=O)[C@H](O)[C@@H](NC(=O)OC(C)(C)C)c4ccccc4)C[C@@](O)([C@@H](OC(=O)c4ccccc4)[C@H]21)C3(C)C", "note": "[docetaxel, reference compound]", "values": [{"measurement": "IC50", "setting": "[12]", "value": 1, "unit": "nM"}]}
